Laboratory results as given in patent US9255088B2, “Premature-termination-codons readthrough compounds” (The Regents of the University of California, priority 2010, dated 2016).
Entries after “also recorded” stand apart in the source; their conditions may differ.

Tests used:
[1] = system: ATMs1981 autophosphorylation in AT153LA cells (TGA); experiment: Flow cytometry ATMs1981 autophosphorylation (FC-ATM) in AT153LA cells; format: cell-based, human; on FCATMs1981: key: the positive results on various assays are also summarized and labeled as '+'
Experimental: FC-SMC1 assay was performed as recently described (Nahas et al., 2009). FC-ATM-Ser1981 assay was based on Honda's assay (Honda et al., 2009, Leukemia. 23:409-414) with modifications. In brief, cells were resuspended in PBS and radiated for 10 Gy. After 1 h, the cells were fixed and permeabilized using the FIX & PERM cell permeabilization kit (Invitrogen). The cells were then incubated with 1 μl of mouse ATM-Ser1981 antibody (Cell Signaling Technology) for 2 h at room temperature. Cells were washed and resuspended in 100 μl PBS with Alexa Fluor 488 anti-mouse IgG (Invitrogen) for 45 min. Cells were next washed and resuspended in PBS with 0.2% paraformaldehyde and analyzed using a FACSCalibur (BD).
Studies on readthrough activity of RTC#13 derivatives as measured by FC-ATMS 1981 were performed according to the procedures provided in Example 1.
These two series, 7 and 9, were tested for readthrough activity using an assay in which the ATM protein kinase activity was measured using a flow cytometry-based ATMs1981 autophosphorylation assay (FC-ATM) (Nahas, S. A; et al., Clin. Chem. 2009, 55, 463-72). […] An increased Delta-FI indicates the restoration of ATM kinase activity by a compound.
(§1) These two series, 13 and 15, were again tested for readthrough activity using the assay in which the ATM protein kinase activity was measured by functional flow cytometry (FC-ATM) (Table 4 and FIG. 12). A second assay, irradiation (1R)-induced ATMs1981 nuclear foci formation (IRIF-ATM), was also used to confirm the readthrough activity of these compounds (Table 4 and FIG. 13). Table 3 summarizes the data for the analogues 13 and 15 (at 30 μM), in which the groups R, R′, and X were varied. More detailed data are reported in FIG. 5 (for FC-ATM assay), and in FIG. 6 (for IRIF-ATM assay). […] Thus, the pyrimidinedione unit serves as a good structural replacement for the 2-imino and 2-thioxo thiazolidin-4-one units.

[2] = system: dystrophin in mdx myotubes (TAA); experiment: Dystrophin expression in mdx myotubes; format: cell-based, mouse; details: FIG. 21
Experimental: To investigate the ability of RTC#13 and #14 to readthrough a PTC mutation in genes other than ATM, we used mdx myotubes. The mdx mouse has been widely used as a model for Duchenne muscular dystrophy. It carries a C to T transition in exon 23 of the dystrophin gene that creates a premature stop codon (TAA), resulting in an absence of dystrophin protein (Sicinski, et al., 1989, Science. 244:1578-1580). […] Muscle progenitor cells isolated from mdx mice were induced to differentiate for 24 h before addition of gentamicin or compounds RTC#13 and #14. Myotube cultures were exposed to compounds for 72 h and then analyzed for dystrophin by Western blotting. […] We next used immunoprecipitation to increase the sensitivity of the assay (FIG. 8). […] Results were consistent in multiple experiments performed.
Cells were prepared and treated with RTCs for 3 d. Dystrophin proteins were detected by Western blot analysis using immunoprecipitation. Wild-type cells were used in the experiment to localize dystrophin protein. Gentamicin was used as a positive readthrough control. […] Results were consistent in three independent experiments.
Cells were derived from limb muscle of neonatal mdx and C57 mice, as previously described (Bertoni and Rando, 2002, Hum. Gene Ther. 13:707-718). For growth, cells were plated on dishes coated with 5 µg/ml laminin (Invitrogen) and maintained in growth medium consisting of Ham's F10 nutrient mixture (Mediatech, Inc.) supplemented with 20% fetal bovine serum, penicillin, and streptomycin. Cell differentiation was induced by maintaining the cells in low serum medium (differentiation medium) consisting of DME supplemented with 2% horse serum, penicillin, and streptomycin. Myoblasts were plated in wells of 6-well dishes and were allowed to differentiate for 24 h before adding the compounds. Media was replaced every 24 h with fresh differentiation media containing the compounds. Cells were lysed 96 h after induction of differentiation (72 h after addition of the compounds). Total protein was determined and dystrophin immunoblot analysis was performed as previously described (Sicinski et al., 1989). 250 μg of total protein from each sample was immunoprecipitated using a monoclonal antibody directed toward the rod domain (MANDYS—8; 1:40; Sigma-Aldrich) of the dystrophin protein and detected by Western blotting (Barton-Davis et al., 1999, J. Clin. Invest. 104:375-381; Bertoni and Rando, 2002).
Muscle cells were induced to differentiate to allow the formation of myotubes and synthesis of dystrophin mRNA. Compounds were added 24 hrs after induction of differentiation by direct addition into the media. The media was replaced every 24 hrs with fresh differentiation media containing the appropriate concentration of compounds. Myotubes were harvested 72 hrs later (96 hrs after induction of differentiation) and analyzed for dystrophin expression by immunoblot analysis (FIG. 14).
Cultures were analyzed for dystrophin expression by immunohistochemistry.
In the experiments shown in FIG. 21, the activity of two of the analogs of RTC#13 termed RTC#BZ6 and RTC#BZ16 was investigated in myotube cultures isolated from mdx mice. Compounds were added to the differentiation media 24 hrs after induction of differentiation and replaced every 24 hrs by changing the media with new fresh media containing the appropriate concentration of RTC#13, RTC#BZ6 or RTC#BZ16. […] No dystrophin expression was detected in cells treated with vehicle only at a final concentration of 10 μM.

[3] = system: ATM-Ser1981 foci in AT153LA cells (TGA A); experiment: Irradiation-induced ATM-Ser1981 foci (IRIF) in AT153LA cells; format: cell-based, human; on IRIF (ATMs1981): key: the positive results on various assays are also summarized and labeled as '+'
Experimental: To evaluate the function of RTC-induced ATM protein, we measured irradiation-induced foci (IRIF) formation of ATM-Ser1981 in the same ATI53LA cells (TGA A). […] The maximum IRIF induction achieved in A-T cells by 10 μM RTC#13 was ˜40% of wild-type level. As a positive readthrough control, 144 μM of G418 (100 μg/ml) was used to treat cells. Our previous studies had shown that, at this concentration, […] induced a maximum level of ATMs1981 IRIF (Lai et al., 2004).
Immunostaining of nuclear foci of ATM-Ser1981 was performed as previously reported (Du et al., 2007). In brief, after being treated with compound for 4 d, cells were irradiated with 2 Gy and incubated at 37° C. for 30 min. The cells were dropped onto coverslips, fixed with 4% paraformaldehyde, and permeabilized. Coverslips were blocked for 1 h and incubated with mouse anti-ATM pSer1981 for 1 h (1:500; Rockland Immunochemicals, Inc). After a second blocking, cells were stained with FITC-conjugated anti-mouse IgG (1:150; Jackson ImmunoResearch Laboratories) for 1 h and mounted onto slides.
Studies on IR-induced ATMs1981 foci formation by RTC#13 and derivatives 13a, 13b, 13d, 13e, 13f, 13g, 13h, 13i, 13j, and 13k in A-T153LA cells (TGA) were performed according to the procedures provided in Example 1.
as §1

[4] = cited from earlier work

With N=C1NC(=O)/C(=C/c2c[nH]c(=O)[nH]c2=O)S1 [Compound 13k, (Z)-5-((2-imino-4-oxothiazolidin-5-ylidene)methyl)pyrimidine-2,4(1H,3H)-dione] the “FC-ATM readthrough activity” value [1] was “good activity”, the “FC-ATM (Delta-FI, 30 μM)” value ([1]; Table 4, compounds 13 and 15, 30 μM) was 5.32 and the FCATMs1981 ([1]; summary of positive results) was “+”. The “dystrophin expression in mdx myotube cultures” value [2] was “levels of dystrophin expression comparable to that achieved using the parent compound RTC#13”, the “IR-induced ATMs1981 foci formation, readthrough activity” value ([3]; A-T153LA cells (TGA), FIG. 13) was “statistically significant readthrough activity; also recorded: good activity” and the “IRIF-ATM (%) (30 μM)” value ([3]; Table 4, 30 μM, IR-induced ATMs1981 nuclear foci formation) was 17%. The “IRIF (ATMs1981)” value ([3]; summary of positive results) was “+”.

For O=C(O)c1cccc(-c2noc(-c3ccccc3F)n2)c1 [PTC124], the tolerability ([4]; phase-I clinical study in cystic fibrosis) is listed as “generally well tolerated” and the “readthrough activity compared with aminoglycosides” value ([4]; phase-I clinical study) is listed as “more efficient readthrough activity than aminoglycosides”.
